Measured values from PubChem BioAssay (NCI).
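Results reflect a 48-hour exposure of cells in 96-well plates to compound at five concentrations. GI50: concentration for 50% inhibition of growth. TGI denotes the concentration required for complete inhibition of growth.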

Tests used:
Assay in all cases: NCI tumour cell line growth inhibition, 48 h
786-0 renal = tested on: 786-0 renal
A498 renal = tested on: A498 renal
A549 NSCLC = tested on: A549 NSCLC
BT-549 breast = tested on: BT-549 breast
CAKI-1 renal = tested on: CAKI-1 renal
CCRF-CEM leukemia = tested on: CCRF-CEM leukemia
COLO 205 colon = tested on: COLO 205 colon
DU-145 prostate = tested on: DU-145 prostate
EKVX NSCLC = tested on: EKVX NSCLC
HCC-2998 colon = tested on: HCC-2998 colon
HCT-116 colon = tested on: HCT-116 colon
HCT-15 colon = tested on: HCT-15 colon
HL-60(TB) leukemia = tested on: HL-60(TB) leukemia
HOP-62 NSCLC = tested on: HOP-62 NSCLC
HOP-92 NSCLC = tested on: HOP-92 NSCLC
HS 578T breast = tested on: HS 578T breast
HT29 colon = tested on: HT29 colon
IGROV1 ovarian = tested on: IGROV1 ovarian
K-562 leukemia = tested on: K-562 leukemia
KM12 colon = tested on: KM12 colon
LOX IMVI melanoma = tested on: LOX IMVI melanoma
M14 melanoma = tested on: M14 melanoma
MALME-3M melanoma = tested on: MALME-3M melanoma
MCF7 breast = tested on: MCF7 breast
MDA-MB-231 breast = tested on: MDA-MB-231 breast
MDA-MB-435 = tested on: MDA-MB-435
MOLT-4 leukemia = tested on: MOLT-4 leukemia
NCI-H226 lung = tested on: NCI-H226 lung
NCI-H23 lung = tested on: NCI-H23 lung
NCI-H460 lung = tested on: NCI-H460 lung
NCI-H522 lung = tested on: NCI-H522 lung
NCI/ADR-RES ovarian = tested on: NCI/ADR-RES ovarian
OVCAR-3 ovarian = tested on: OVCAR-3 ovarian
OVCAR-4 ovarian = tested on: OVCAR-4 ovarian
OVCAR-8 ovarian = tested on: OVCAR-8 ovarian
PC-3 prostate = tested on: PC-3 prostate
RPMI-8226 leukemia = tested on: RPMI-8226 leukemia
RXF 393 renal = tested on: RXF 393 renal
SF-268 CNS = tested on: SF-268 CNS
SF-295 CNS = tested on: SF-295 CNS
SK-MEL-2 melanoma = tested on: SK-MEL-2 melanoma
SK-MEL-5 melanoma = tested on: SK-MEL-5 melanoma
SK-OV-3 ovarian = tested on: SK-OV-3 ovarian
SN12C renal = tested on: SN12C renal
SNB-19 CNS = tested on: SNB-19 CNS
SNB-75 CNS = tested on: SNB-75 CNS
SR leukemia = tested on: SR leukemia
SW-620 colon = tested on: SW-620 colon
T-47D breast = tested on: T-47D breast
TK-10 renal = tested on: TK-10 renal
U251 CNS = tested on: U251 CNS
UACC-257 melanoma = tested on: UACC-257 melanoma
UACC-62 melanoma = tested on: UACC-62 melanoma
UO-31 renal = tested on: UO-31 renal
ACHN renal = tested on: ACHN renal
OVCAR-5 ovarian = tested on: OVCAR-5 ovarian
SF-539 CNS = tested on: SF-539 CNS
SK-MEL-28 melanoma = tested on: SK-MEL-28 melanoma

SMILES: CC(C)[C@H]1COC(=O)N1[C@@H]1C(=O)N([C@@H](CCC(=O)N2CCN(C3CCCC3)CC2)C(=O)N[C@@H]2CCCc3ccccc32)[C@@H]1/C=C/c1cccc(Br)c1
- GI50 (786-0 renal): 2.01 µM
- TGI (786-0 renal): 4.69 µM
- GI50 (A498 renal): 1.4 µM
- TGI (A498 renal): 4.04 µM
- GI50 (A549 NSCLC): 3.05 µM
- TGI (A549 NSCLC): 11.5 µM
- GI50 (BT-549 breast): 1.46 µM
- TGI (BT-549 breast): 3.11 µM
- GI50 (CAKI-1 renal): 1.88 µM
- TGI (CAKI-1 renal): 4.01 µM
- GI50 (CCRF-CEM leukemia): 2.91 µM
- TGI (CCRF-CEM leukemia): 8.4 µM
- GI50 (COLO 205 colon): 1.5 µM
- TGI (COLO 205 colon): 3.11 µM
- GI50 (DU-145 prostate): 1.52 µM
- TGI (DU-145 prostate): 7.57 µM
- GI50 (EKVX NSCLC): 3.01 µM
- TGI (EKVX NSCLC): 15.2 µM
- GI50 (HCC-2998 colon): 1.83 µM
- TGI (HCC-2998 colon): 3.63 µM
- GI50 (HCT-116 colon): 1.57 µM
- TGI (HCT-116 colon): 2.99 µM
- GI50 (HCT-15 colon): 1.69 µM
- TGI (HCT-15 colon): 3.63 µM
- GI50 (HL-60(TB) leukemia): 1.91 µM
- TGI (HL-60(TB) leukemia): 4.9 µM
- GI50 (HOP-62 NSCLC): 1.82 µM
- TGI (HOP-62 NSCLC): 4.96 µM
- GI50 (HOP-92 NSCLC): 1.5 µM
- TGI (HOP-92 NSCLC): 4.21 µM
- GI50 (HS 578T breast): 2.5 µM
- TGI (HS 578T breast): 9.31 µM
- GI50 (HT29 colon): 1.3 µM
- TGI (HT29 colon): 2.77 µM
- GI50 (IGROV1 ovarian): 1.83 µM
- TGI (IGROV1 ovarian): 5.9 µM
- GI50 (K-562 leukemia): 2.17 µM
- TGI (K-562 leukemia): 4.95 µM
- GI50 (KM12 colon): 2.17 µM
- TGI (KM12 colon): 5.83 µM
- GI50 (LOX IMVI melanoma): 0.376 µM
- TGI (LOX IMVI melanoma): 1.55 µM
- GI50 (M14 melanoma): 1.8 µM
- TGI (M14 melanoma): 3.46 µM
- GI50 (MALME-3M melanoma): 1.62 µM
- TGI (MALME-3M melanoma): 3.26 µM
- GI50 (MCF7 breast): 2.09 µM
- TGI (MCF7 breast): 6.33 µM
- GI50 (MDA-MB-231 breast): 1.86 µM
- TGI (MDA-MB-231 breast): 3.77 µM
- GI50 (MDA-MB-435): 1.26 µM
- TGI (MDA-MB-435): 2.65 µM
- GI50 (MOLT-4 leukemia): 1.45 µM
- TGI (MOLT-4 leukemia): 7.39 µM
- GI50 (NCI-H226 lung): 3.49 µM
- TGI (NCI-H226 lung): 15.6 µM
- GI50 (NCI-H23 lung): 3.46 µM
- TGI (NCI-H23 lung): 16.6 µM
- GI50 (NCI-H460 lung): 1.69 µM
- TGI (NCI-H460 lung): 3.62 µM
- GI50 (NCI-H522 lung): 1.75 µM
- TGI (NCI-H522 lung): 3.51 µM
- GI50 (NCI/ADR-RES ovarian): 2.98 µM
- TGI (NCI/ADR-RES ovarian): 11.8 µM
- GI50 (OVCAR-3 ovarian): 1.97 µM
- TGI (OVCAR-3 ovarian): 3.92 µM
- GI50 (OVCAR-4 ovarian): 2.79 µM
- TGI (OVCAR-4 ovarian): 15 µM
- GI50 (OVCAR-8 ovarian): 4.12 µM
- TGI (OVCAR-8 ovarian): 15.4 µM
- GI50 (PC-3 prostate): 1.8 µM
- TGI (PC-3 prostate): 4.28 µM
- GI50 (RPMI-8226 leukemia): 1.47 µM
- TGI (RPMI-8226 leukemia): 3.93 µM
- GI50 (RXF 393 renal): 1.59 µM
- TGI (RXF 393 renal): 3.47 µM
- GI50 (SF-268 CNS): 1.11 µM
- TGI (SF-268 CNS): 2.83 µM
- GI50 (SF-295 CNS): 2.15 µM
- TGI (SF-295 CNS): 5.05 µM
- GI50 (SK-MEL-2 melanoma): 1.69 µM
- TGI (SK-MEL-2 melanoma): 3.3 µM
- GI50 (SK-MEL-5 melanoma): 1.51 µM
- TGI (SK-MEL-5 melanoma): 2.84 µM
- GI50 (SK-OV-3 ovarian): 2.82 µM
- TGI (SK-OV-3 ovarian): 8.21 µM
- GI50 (SN12C renal): 2.27 µM
- TGI (SN12C renal): 5.51 µM
- GI50 (SNB-19 CNS): 2.77 µM
- TGI (SNB-19 CNS): 14.5 µM
- GI50 (SNB-75 CNS): 1.36 µM
- TGI (SNB-75 CNS): 3.91 µM
- GI50 (SR leukemia): 1.87 µM
- TGI (SR leukemia): 4.71 µM
- GI50 (SW-620 colon): 1.95 µM
- TGI (SW-620 colon): 4.57 µM
- GI50 (T-47D breast): 2.26 µM
- GI50 (TK-10 renal): 1.46 µM
- TGI (TK-10 renal): 3.47 µM
- GI50 (U251 CNS): 1.9 µM
- TGI (U251 CNS): 3.51 µM
- GI50 (UACC-257 melanoma): 1.63 µM
- TGI (UACC-257 melanoma): 3.44 µM
- GI50 (UACC-62 melanoma): 1.8 µM
- TGI (UACC-62 melanoma): 3.58 µM
- GI50 (UO-31 renal): 1.49 µM
- TGI (UO-31 renal): 3.04 µM

SMILES: [O-][n+]1ccccc1Sc1nc(Sc2cccc[n+]2[O-])nc(Sc2cccc[n+]2[O-])n1
- TGI (786-0 renal): 2.53 µM
- TGI (A498 renal): 8.37 µM
- TGI (A549 NSCLC): 13.9 µM
- TGI (ACHN renal): 4.06 µM
- TGI (BT-549 breast): 4.96 µM
- TGI (CAKI-1 renal): 2.11 µM
- TGI (CCRF-CEM leukemia): > 100 µM
- TGI (COLO 205 colon): 2.3 µM
- TGI (DU-145 prostate): 10.2 µM
- TGI (EKVX NSCLC): 5.81 µM
- TGI (HCC-2998 colon): 2.89 µM
- TGI (HCT-116 colon): 2.53 µM
- TGI (HCT-15 colon): 2.93 µM
- TGI (HL-60(TB) leukemia): > 100 µM
- TGI (HOP-62 NSCLC): 9.17 µM
- TGI (HOP-92 NSCLC): 3.03 µM
- TGI (HS 578T breast): 10.9 µM
- TGI (HT29 colon): 2.61 µM
- TGI (IGROV1 ovarian): 3.03 µM
- TGI (KM12 colon): 3.88 µM
- TGI (LOX IMVI melanoma): 4 µM
- TGI (M14 melanoma): 3.06 µM
- TGI (MALME-3M melanoma): 4.06 µM
- TGI (MCF7 breast): 2.47 µM
- TGI (MDA-MB-231 breast): 2.73 µM
- TGI (MDA-MB-435): 4.15 µM
- TGI (NCI-H226 lung): 6.78 µM
- TGI (NCI-H23 lung): 3.87 µM
- TGI (NCI-H460 lung): 4.22 µM
- TGI (NCI-H522 lung): 2.23 µM
- TGI (NCI/ADR-RES ovarian): 29.1 µM
- TGI (OVCAR-3 ovarian): 6.49 µM
- TGI (OVCAR-4 ovarian): 4.74 µM
- TGI (OVCAR-5 ovarian): 3.61 µM
- TGI (OVCAR-8 ovarian): 1.99 µM
- TGI (PC-3 prostate): 2.19 µM
- TGI (RXF 393 renal): 2.23 µM
- TGI (SF-268 CNS): 10.1 µM
- TGI (SF-295 CNS): 11.1 µM
- TGI (SF-539 CNS): 4.06 µM
- TGI (SK-MEL-2 melanoma): 3.71 µM
- TGI (SK-MEL-28 melanoma): 3.25 µM
- TGI (SK-MEL-5 melanoma): 3.07 µM
- TGI (SK-OV-3 ovarian): 18.6 µM
- TGI (SN12C renal): 3.48 µM
- TGI (SNB-19 CNS): 26.1 µM
- TGI (SNB-75 CNS): 18.6 µM
- TGI (SR leukemia): 2.97 µM
- TGI (T-47D breast): 8.85 µM
- TGI (TK-10 renal): 3.82 µM
- TGI (U251 CNS): 3.3 µM
- TGI (UACC-257 melanoma): 6.23 µM
- TGI (UACC-62 melanoma): 3.67 µM
- TGI (UO-31 renal): 3.25 µM
